Biological target: T1, human EP2 (Homo sapiens, UniProt P43116)
T1 construct: expressed in transfected cells; host or cells: CHO cells (EP2-CHO)
Assay: Measurement of EP2 agonist activity (measurement of cAMP concentration)
Type: cell-based
Conditions: EP2-CHO cells, cAMP production (HTRF), reaction 30 minutes at room temperature; read-out: EP2 agonist activity EC50
Description: Using Chem1 cells or CHO cells in which various prostanoid receptors were forcibly expressed, respectively, agonist activities of test compounds on various prostanoid receptors was determined employing, as a measure, an intracellular cyclic AMP (hereinbelow, abbreviated as “cAMP”) production amount or an intracellular calcium concentration.
The test compound and a control substance (PGE2 and PGF2α) were dissolved in dimethyl sulfoxide (DMSO) to prepare a 10 mmol/L solution. The 10 mmol/L solution thus prepared was thawed upon use, then serially diluted with DMSO, and then diluted with a buffer solution for measurement use or a buffer solution for measurement use 2, and then the resulting solution was subjected to an experiment.
Cells forcibly expressing various prostanoid receptors were standing-cultured at 37° C. in the presence of 5% CO2 using a DMEM medium (Sigma) (for culturing FP-Chem1) containing inactivated (56° C., 30 minutes) 9.8 vol % nondialysed-FBS (Life Technologies), 1 vol % Non Essential Amino Acids (Life Technologies), 10 mmol/L HEPES Buffer Solution (Life Technologies), 0.5 vol % GENETICIN (Life Technologies) and 1% penicillin-streptomycin (Life Technologies) or an α-MEM medium (Sigma) (for culturing EP2-CHO) containing inactivated (56° C., 30 minutes) 9.8 vol % dialysed-FBS (Life Technologies) and penicillin-streptomycin-glutamine (Life Technologies). Subculturing was carried out by the following manner.
The medium was removed, and washed with a phosphate-buffered physiological saline not containing Ca^2+ and Mg^2+ one time. A proper amount of trypsin-EDTA (Life Technologies) was added, and this was incubated at room temperature, cells were peeled, and a medium having a volume which is 10-fold a volume of trypsin-EDTA was added to stop an enzymatic reaction. After cells were recovered into a centrifuging tube, and centrifuged at room temperature for 3 minutes at 120 g, the supernatant was removed. Cells were suspended in a proper amount of a medium, and seeded in a culturing flask.
On the measurement day, a medium was removed, and EP2-CHO was washed with a phosphate-buffered physiological saline containing 2 mmol/L EDTA and not containing Ca^2+ and Mg^2+ one time. A proper amount of the phosphate-buffered physiological saline containing 2 mmol/L EDTA and not containing Ca^2+ and Mg^2+ was added, this was incubated at 37° C. in the presence of 5% CO2, cells were peeled, cells were recovered into a centrifuging tube, and centrifuged at room temperature for 3 minutes at 550 g, and the supernatant was removed. Cells were suspended in a proper amount of a buffer solution for measurement 1 (MEM medium (Invitrogen) containing 1.0 w/v % bovine serum albumin (Sigma) and 2 μmol/L diclofenac (Sigma)), and centrifuged at room temperature for 3 minutes at 200 g, and the supernatant was removed. Cells were suspended in a buffer solution for measurement 2 (MEM medium (Invitrogen) containing 1.0 w/v % bovine serum albumin (Sigma), 2 μmol/L diclofenac (Sigma) and 1 mmol/L 3-isobutyl-1-methylxanthine), and each 25 μL of the suspension was dispensed into a 96-well ½ area plate so that the cell number per well became […]. A buffer solution for measurement 2 (25 μL) containing an agonist at a variety of concentrations was added to carry out a reaction at room temperature for 30 minutes. Measurement of a cAMP concentration was carried out using the cAMP HTRF HiRange kit (CIS bio International). According to the two step protocol of the kit manual, each 25 μL of cAMP-D2 and Cryptase diluted with a lysis buffer were added, and this was incubated at room temperature for 1 hour. After incubation for 1 hour, time resolution fluorescence at 620 nm and 660 nm when excited at 340 nm was measured using SpectraMax M5e (Molecular Device), and a ratio (TRF ratio) was obtained, thereby, a cAMP concentration was calculated from a calibration line. […]

T1 sequence (P43116 whole entry): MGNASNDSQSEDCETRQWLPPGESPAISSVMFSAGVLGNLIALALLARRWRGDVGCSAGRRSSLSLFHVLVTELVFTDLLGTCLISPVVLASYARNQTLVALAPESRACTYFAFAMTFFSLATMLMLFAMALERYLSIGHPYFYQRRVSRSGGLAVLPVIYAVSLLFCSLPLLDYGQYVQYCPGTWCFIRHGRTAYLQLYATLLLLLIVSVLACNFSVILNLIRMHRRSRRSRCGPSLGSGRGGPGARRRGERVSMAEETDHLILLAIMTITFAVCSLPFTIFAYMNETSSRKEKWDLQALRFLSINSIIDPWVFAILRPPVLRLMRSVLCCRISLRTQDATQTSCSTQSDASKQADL

Compound | EC50 [nM]
O=C(O)c1csc([C@H]2CC[C@@H]3[C@@H](COc4ccc5c(c4)CCC5)[C@H](O)C[C@@H]3O2)n1 [1(6), 2-{(2R,4aR,5S,6R,7aS)-5-[(2,3-dihydro-1H-inden-5-yloxy)methyl]-6-hydroxyoctahydrocyclopenta[b]pyran-2-yl}-1,3-thiazole-4-carboxylic acid] | 7.5
Cc1ccc(OC[C@@H]2[C@H]3CC[C@H](c4nc(C(=O)O)cs4)O[C@H]3C[C@H]2O)cc1C [1(7), 2-{(2R,4aR,5S,6R,7aS)-5-[(3,4-dimethylphenoxy)methyl]-6-hydroxyoctahydrocyclopenta[b]pyran-2-yl}-1,3-thiazole-4-carboxylic acid] | 3.3
O=C(O)c1csc([C@H]2CC[C@@H]3[C@@H](COc4ccc5[nH]ccc5c4)[C@H](O)C[C@@H]3O2)n1 [1(12), 2-{(2R,4aR,5S,6R,7aS)-6-hydroxy-5-[(1H-indol-5-yloxy)methyl]octahydrocyclopenta[b]pyran-2-yl}-1,3-thiazole-4-carboxylic acid] | 19
O=C(O)c1csc([C@H]2CC[C@@H]3[C@@H](COc4cccc5c4CCC5)[C@H](O)C[C@@H]3O2)n1 [1(13), 2-{(2R,4aR,5S,6R,7aS)-5-[(2,3-dihydro-1H-inden-4-yloxy)methyl]-6-hydroxyoctahydrocyclopenta[b]pyran-2-yl}-1,3-thiazole-4-carboxylic acid] | 1.1
O=C(O)c1csc([C@H]2CC[C@@H]3[C@@H](COc4ccc5c(c4)CC5)[C@H](O)C[C@@H]3O2)n1 [1(15), 2-{(2R,4aR,5S,6R,7aS)-5-[(bicyclo[4.2.0]octa-1,3,5-trien-3-yloxy)methyl]-6-hydroxyoctahydrocyclopenta[b]pyran-2-yl}-1,3-thiazole-4-carboxylic acid] | 14
O=C(O)c1csc([C@H]2CC[C@@H]3[C@@H](COc4ccc5ccoc5c4)[C@H](O)C[C@@H]3O2)n1 [1(16), 2-{(2R,4aR,5S,6R,7aS)-5-[(1-benzofuran-6-yloxy)methyl]-6-hydroxyoctahydrocyclopenta[b]pyran-2-yl}-1,3-thiazole-4-carboxylic acid] | 5.5
O=C(O)c1csc([C@H]2CC[C@@H]3[C@@H](COc4ccc5c(c4F)CCC5)[C@H](O)C[C@@H]3O2)n1 [1(19), 2-[(2R,4aR,5S,6R,7aS)-5-{[(4-fluoro-2,3-dihydro-1H-inden-5-yl)oxy]methyl}-6-hydroxyoctahydrocyclopenta[b]pyran-2-yl]-1,3-thiazole-4-carboxylic acid] | 2.4
O=C(O)c1csc([C@H]2CC[C@@H]3[C@@H](COc4ccc(Cl)c(C5CC5)c4)[C@H](O)C[C@@H]3O2)n1 [1(22), 2-{(2R,4aR,5S,6R,7aS)-5-[(4-chloro-3-cyclopropylphenoxy)methyl]-6-hydroxyoctahydrocyclopenta[b]pyran-2-yl}-1,3-thiazole-4-carboxylic acid] | 2.3
O=C(O)c1csc([C@H]2CC[C@@H]3[C@@H](COc4ccccc4)[C@H](O)C[C@@H]3O2)n1 [1(27), 2-[(2R,4aR,5S,6R,7aS)-6-hydroxy-5-(phenoxymethyl)octahydrocyclopenta[b]pyran-2-yl]-1,3-thiazole-4-carboxylic acid] | 12
O=C(O)c1csc([C@H]2CC[C@@H]3[C@@H](COc4ccc5c(c4)CCCC5)[C@@H](O)C[C@@H]3O2)n1 [9(12), 2-{(2R,4aR,5S,6S,7aS)-6-hydroxy-5-[(5,6,7,8-tetrahydro-2-naphthalenyloxy)methyl]octahydrocyclopenta[b]pyran-2-yl}-1,3-thiazole-4-carboxylic acid] | 6.4
CCc1ccc(OC[C@@H]2[C@H]3CC[C@H](c4nc(C(=O)O)cs4)O[C@H]3C[C@@H]2O)cc1CC [9(23), 2-{(2R,4aR,5S,6S,7aS)-5-[(3,4-diethylphenoxy)methyl]-6-hydroxyoctahydrocyclopenta[b]pyran-2-yl}-1,3-thiazole-4-carboxylic acid] | 1.6
O=C(O)c1csc([C@H]2CC[C@@H]3[C@@H](COc4ccc5c(c4)CCCCC5)[C@@H](O)C[C@@H]3O2)n1 [9(33)] | 1.6
CCc1ccc(OC[C@@H]2[C@H]3CC[C@H](c4nc(C(=O)O)cs4)O[C@H]3C[C@@H]2O)cc1C1CC1 [9(35), 2-{(2R,4aR,5S,6S,7aS)-5-[(3-cyclopropyl-4-ethylphenoxy)methyl]-6-hydroxyoctahydrocyclopenta[b]pyran-2-yl}-1,3-thiazole-4-carboxylic acid] | 2.4
CCc1ccc(OC[C@@H]2[C@H]3CC[C@H](c4nc(C(=O)O)cs4)O[C@H]3C[C@@H]2O)cc1C1CCC1 [9(36), 2-{(2R,4aR,5S,6S,7aS)-5-[(3-cyclobutyl-4-ethylphenoxy)methyl]-6-hydroxyoctahydrocyclopenta[b]pyran-2-yl}-1,3-thiazole-4-carboxylic acid] | 3.5
O=C(O)c1csc([C@H]2CC[C@@H]3[C@@H](COc4ccc(C5CC5)c(C5CC5)c4)[C@@H](O)C[C@@H]3O2)n1 [Example 9, 2-{(2R,4aR,5S,6S,7aS)-5-[(3,4-dicyclopropylphenoxy)methyl]-6-hydroxyoctahydrocyclopenta[b]pyran-2-yl}-1,3-thiazole-4-carboxylic acid] | 2.8

These reach a lower EC50. Values come first.

EC50 [nM] | Compound
0.5 | Cc1cc(OC[C@@H]2[C@H]3CC[C@H](c4nc(C(=O)O)cs4)O[C@H]3C[C@H]2O)ccc1[N+](=O)[O-] [1(4), 2-{(2R,4aR,5S,6R,7aS)-6-hydroxy-5-[(3-methyl-4-nitrophenoxy)methyl]octahydrocyclopenta[b]pyran-2-yl}-1,3-thiazole-4-carboxylic acid]
0.9 | Cc1cc(OC[C@@H]2[C@H]3CC[C@H](c4nc(C(=O)O)cs4)O[C@H]3C[C@H]2O)ccc1Cl [1(5), 2-{(2R,4aR,5S,6R,7aS)-5-[(4-chloro-3-methylphenoxy)methyl]-6-hydroxyoctahydrocyclopenta[b]pyran-2-yl}-1,3-thiazole-4-carboxylic acid]
0.82 | CCc1cc(OC[C@@H]2[C@H]3CC[C@H](c4nc(C(=O)O)cs4)O[C@H]3C[C@H]2O)ccc1C [1(17), 2-{(2R,4aR,5S,6R,7aS)-5-[(3-ethyl-4-methylphenoxy)methyl]-6-hydroxyoctahydrocyclopenta[b]pyran-2-yl}-1,3-thiazole-4-carboxylic acid]
0.86 | O=C(O)c1csc([C@H]2CC[C@@H]3[C@@H](COc4ccc5c(c4)CCC5)[C@@H](O)C[C@@H]3O2)n1 [9(1), 2-{(2R,4aR,5S,6S,7aS)-5-[(2,3-dihydro-1H-inden-5-yloxy)methyl]-6-hydroxyoctahydrocyclopenta[b]pyran-2-yl}-1,3-thiazole-4-carboxylic acid]
0.16 | Cc1ccc(OC[C@@H]2[C@H]3CC[C@H](c4nc(C(=O)O)cs4)O[C@H]3C[C@@H]2O)cc1Cl [9(3), 2-{(2R,4aR,5S,6S,7aS)-5-[(3-chloro-4-methylphenoxy)methyl]-6-hydroxyoctahydrocyclopenta[b]pyran-2-yl}-1,3-thiazole-4-carboxylic acid]
0.33 | CCc1cc(OC[C@@H]2[C@H]3CC[C@H](c4nc(C(=O)O)cs4)O[C@H]3C[C@@H]2O)ccc1C [9(4), 2-{(2R,4aR,5S,6S,7aS)-5-[(3-ethyl-4-methylphenoxy)methyl]-6-hydroxyoctahydrocyclopenta[b]pyran-2-yl}-1,3-thiazole-4-carboxylic acid]
0.91 | O=C(O)c1csc([C@H]2CC[C@@H]3[C@@H](COc4ccc5c(c4F)CCC5)[C@@H](O)C[C@@H]3O2)n1 [9(5), 2-[(2R,4aR,5S,6S,7aS)-5-{[(4-fluoro-2,3-dihydro-1H-inden-5-yl)oxy]methyl}-6-hydroxyoctahydrocyclopenta[b]pyran-2-yl]-1,3-thiazole-4-carboxylic acid]
0.074 | CSc1cc(OC[C@@H]2[C@H]3CC[C@H](c4nc(C(=O)O)cs4)O[C@H]3C[C@@H]2O)ccc1C [9(25)]

From patent US9890146B2, “Compound having selective EP2 agonist activity” (ONO PHARMACEUTICAL CO., LTD., priority 2014, dated 2018)
